Source: ChEMBL document CHEMBL3352083, “Antibacterial activity of novel benzopolycyclic amines” (Bioorg Med Chem, 2015)
Values after ≈ are worked out from the molar mass of the structure shown. Active and inactive are the calls of the source. The rule behind the calls is not given here.

Tests used:
[1] = system: Pseudomonas aeruginosa; assay: Antimicrobial activity against Pseudomonas aeruginosa PAO1 CECT 4122 ATCC 15692 incubated for 18 hrs by microplate reader based assay; assay type: functional; conditions: for MIC: read-out: MIC100
[2] = system: Staphylococcus aureus; assay: Antimicrobial activity against Staphylococcus aureus CECT 86 ATCC 12600 incubated for 18 hrs by microplate reader based assay; assay type: functional; conditions: CECT 86 ATCC 12600, 18 h; for MIC: read-out: MIC100
[3] = Toxicity against macrophages (unknown origin) assessed as reduction in cell viability after 24 to 48 hrs by MTT assay; assay type: cell-based, Macrophage
[4] = Selectivity index, ratio of CC50 for macrophages (unknown origin) to MIC50 for Staphylococcus aureus CECT 86 ATCC 12600; assay type: functional
[5] = Antimicrobial activity against Enterococcus faecalis CECT 481 ATCC 19433 incubated for 18 hrs by microplate reader based assay; assay type: functional, Enterococcus faecalis ATCC 19433; conditions: CECT 481, 18 h
[6] = Selectivity index, ratio of CC50 for macrophages (unknown origin) to MIC50 for methicillin-resistant Staphylococcus aureus; assay type: functional
[7] = Selectivity index, ratio of CC50 for macrophages (unknown origin) to MIC50 for Enterococcus faecalis CECT 481 ATCC 19433; assay type: functional
[8] = system: Staphylococcus aureus; assay: Anti-biofilm activity against Staphylococcus aureus CECT 86 ATCC 12600 incubated for 24 to 48 hrs; assay type: functional
[9] = system: Staphylococcus epidermidis; assay: Antimicrobial activity against Staphylococcus epidermidis CECT 231 ATCC 1798 incubated for 18 hrs by microplate reader based assay; assay type: functional; conditions: CECT 231 ATCC 1798, 18 h
[10] = Selectivity index, ratio of CC50 for macrophages (unknown origin) to MIC50 for Staphylococcus epidermidis CECT 231 ATCC 1798; assay type: functional
[11] = system: Burkholderia cenocepacia; assay: Antimicrobial activity against Burkholderia cenocepacia J2315 incubated for 18 hrs by microplate reader based assay; assay type: functional; conditions: J2315, 18 h
[12] = Selectivity index, ratio of CC50 for macrophages (unknown origin) to MIC50 for Streptococcus mutans CECT 479 ATCC 25175; assay type: functional
[13] = system: Staphylococcus aureus; assay: Bacteriolytic activity against Staphylococcus aureus CECT 86 ATCC 12600 at 36 uM incubated for 3 hrs by live/dead assay; assay type: functional, organism-based
[14] = Antimicrobial activity against Streptococcus mutans CECT 479 ATCC 25175 incubated for 18 hrs by microplate reader based assay; assay type: functional, Streptococcus mutans ATCC 25175; conditions: CECT 479, 18 h
[15] = system: Staphylococcus aureus; assay: Antimicrobial activity against methicillin-resistant Staphylococcus aureus incubated for 18 hrs by microplate reader based assay; assay type: functional
[16] = PAO1 CECT 4122 ATCC 15692, 18 h

SMILES | MIC50 [1] | MIC50 [2] | MIC [2] | further results
CCN(CC)C12CC3CC(C)(CC(C1)c1ccccc13)O2 | inactive | > 1000 µM |  | 
NC12CC3CC(F)(CC(C1)c1cc([N+](=O)[O-])ccc13)C2 (stereo not given) |  | 125 µM (≈ 34.5 µg/mL) | < 312 µM | 
NC12CC3CC(CC(C1)c1ccccc13)O2 | inactive | > 1000 µM |  | 
CN(C)C12CC3CC(C)(CC(C1)c1ccccc13)C2 | inactive | > 1000 µM |  | 
CN(Cc1ccccc1)C12CC3CC(C)(CC(C1)c1ccccc13)C2 | inactive | > 1000 µM |  | 
O=C(O)c1cn(C2CC2)c2cc(N3CCNCC3)c(F)cc2c1=O [CIPROFLOXACIN] |  | 0.3 µM (≈ 0.0994 µg/mL) |  | MIC50 [1, 16]: 1.2 µM (≈ 0.398 µg/mL)
NNC12CC3CC(CC(C1)c1ccccc13)O2 | inactive | > 1000 µM |  | 
CC12CC3CC(NCc4ccccc4)(CC(C1)c1ccccc13)C2 | inactive | > 1000 µM |  | 
CN(C)C12CC3CC(O)(CC(C1)c1ccccc13)C2 |  | > 1000 µM | > 10000 µM | MIC50 [1, 16]: < 2500 µM; MIC [1, 16]: 5 mM (≈ 1290 µg/mL); CC50 [3]: > 100 µM
CN(C)C12CC3CC(F)(CC(C1)c1ccccc13)C2 | inactive | > 1000 µM |  | 
CC12CC3CC(NCC(N)=O)(CC(C1)c1ccccc13)C2 | inactive | > 1000 µM |  | 
CN(C)C12CC3CC(C1)c1ccccc1C(C3)C2 | inactive | 304 µM (≈ 73.4 µg/mL) | < 625 µM | CC50 [3]: 44.5 µM; Selectivity Index [4]: 0.15
Cl.NC12CC3CC(Cl)(CC(C1)c1ccccc13)C2 |  | 36 µM | < 156 µM | MIC50 [5]: 60 µM; MIC ([5]; read-out: MIC100): > 250 µM; Selectivity Index [6]: 4.84; Selectivity Index [7]: 6.05; MBIC50 [8]: 45 µM; MIC50 [9]: 75 µM; MIC ([9]; read-out: MIC100): < 250 µM; MIC50 [1, 16]: 1250 µM; MIC [1, 16]: > 1.25 mM; CC50 [3]: 363 µM; Selectivity Index [10]: 4.84; MIC50 [11]: < 125 µM; MIC ([11]; read-out: MIC100): > 250 µM; Selectivity Index [12]: 6.05; Activity [13]: Active; MIC50 [14]: 60 µM; MIC ([14]; read-out: MIC100): > 250 µM; MIC50 [15]: 75 µM; MIC ([15]; read-out: MIC100): < 180 µM; Selectivity Index [4]: 10.1
CN(Cc1ccccc1)C12CC3CC(CC(C1)c1ccccc13)O2 | inactive | > 1000 µM |  | 
CN(C)C12CC3CC(C)(CC(C1)c1ccccc13)O2 | inactive | > 1000 µM |  | 
C#CCNC12CC3CC(CC(C1)c1ccccc13)O2 | inactive | > 1000 µM |  | 
NC12CC3CC(C1)c1ccccc1C(C3)C2 | inactive | 17 µM (≈ 3.63 µg/mL) | > 39 µM | CC50 [3]: 58.5 µM; Selectivity Index [4]: 3.4
CN(C)C12CC3CC(Cl)(CC(C1)c1ccccc13)C2 |  | < 625 µM | < 1250 µM | 
CC(=O)NC12CC3CC(C)(CC(C1)c1ccccc13)O2 | inactive | > 1000 µM |  | 
CN(C)C12CC3CC(F)(CC(C1)c1cc([N+](=O)[O-])ccc13)C2 (stereo not given) |  | < 425 µM | < 1250 µM | 
Nc1ccc2c(c1)C1CC3(N)CC2CC(F)(C1)C3 (stereo not given) |  | < 375 µM | < 1250 µM | 
NC12CC3CC(F)(CC(C1)c1ccccc13)C2 | inactive | 95 µM (≈ 22 µg/mL) | < 312 µM | 
CC12CC3CC(N)(CC(C1)c1ccccc13)C2 | inactive | > 1000 µM |  | 
c1ccc(CN(Cc2ccccc2)C23CC4CC(CC(C2)c2ccccc24)O3)cc1 | inactive | > 1000 µM |  | 
c1ccc(CNC23CC4CC(CC(C2)c2ccccc24)O3)cc1 | inactive | > 1000 µM |  | 
